Reference: the supplement of paper PMC10307832

Tests used:
Assay in all cases: relative viability (nuclei count vs DMSO), 5 days (fraction); higher = more cells survive
[1] = compound: CN(C)C[C@@H]1CCn2cc(c3ccccc32)C2=C(C(=O)NC2=O)c2cn(c3ccccc23)CCO1 [Ruboxistaurin] + C[C@@H](Oc1cc(-c2cnn(C3CCNCC3)c2)cnc1N)c1c(Cl)ccc(F)c1Cl [Crizotinib] (partner 1 µM)
Summary of the method: (§1)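 Lung cancer cell lines were seeded in 1536-well plates and dosed by pin tool the next day, with either a single drug or a fixed anchor-drug dose combined with five library-drug doses (not always all listed) spaced in √10 steps. Five days later, one step fixed the cells and stained their nuclei (final 0.05% Triton X-100, 1% formaldehyde, 1 ug/ml Hoechst), and nuclei were counted on 4× images. Relative viability is the nuclei count in treated wells divided by the count in vehicle wells, and each value is the median of duplicate plates.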

[2] = compound: CN(C)C[C@@H]1CCn2cc(c3ccccc32)C2=C(C(=O)NC2=O)c2cn(c3ccccc23)CCO1 [Ruboxistaurin] + C[C@]1(O)C[C@@H](c2nc(-c3ccc4ccc(-c5ccccc5)nc4c3)c3c(N)nccn32)C1 [Linsitinib] (partner 1 µM)
Summary of the method: as §1

[3] = compound: CN(C)C[C@@H]1CCn2cc(c3ccccc32)C2=C(C(=O)NC2=O)c2cn(c3ccccc23)CCO1 [Ruboxistaurin] + O=C(CCCCCCC(=O)Nc1ccccc1)NO [Vorinostat] (partner 1 µM)
Summary of the method: as §1

Ruboxistaurin = compound: CN(C)C[C@@H]1CCn2cc(c3ccccc32)C2=C(C(=O)NC2=O)c2cn(c3ccccc23)CCO1 [Ruboxistaurin]
Summary of the method: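 Viability here means nuclei in treated wells divided by nuclei in vehicle wells, reported as the median across plates. Only plates with control CV below 25% and at least one doubling passed. Lung cancer cell lines in 1536-well plates were exposed to five √10-spaced library-drug doses for 5 days and counted from 4× Hoechst images in MetaXpress.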

[4] = compound: CN(C)C[C@@H]1CCn2cc(c3ccccc32)C2=C(C(=O)NC2=O)c2cn(c3ccccc23)CCO1 [Ruboxistaurin] + CCNC(=O)c1noc(-c2cc(C(C)C)c(O)cc2O)c1-c1ccc(CN2CCOCC2)cc1 [Luminespib] (partner 0.01 µM)
Summary of the method: as §1

| Cell Line | relative viability ([1]; first compound 0.08 µM) | relative viability ([1]; first compound 0.8 µM) | relative viability ([1]; first compound 2.53 µM) | relative viability ([1]; first compound 8 µM) | relative viability ([2]; first compound 0.08 µM) | relative viability ([2]; first compound 0.8 µM) | relative viability ([2]; first compound 2.53 µM) | relative viability ([2]; first compound 8 µM) | relative viability ([3]; first compound 0.08 µM) | relative viability ([3]; first compound 0.8 µM) | relative viability ([3]; first compound 2.53 µM) | relative viability ([3]; first compound 8 µM) | relative viability (Ruboxistaurin; 0.08 µM) | relative viability (Ruboxistaurin; 0.8 µM) | relative viability (Ruboxistaurin; 2.53 µM) | relative viability (Ruboxistaurin; 8 µM) | relative viability ([4]; first compound 0.08 µM) | relative viability ([4]; first compound 0.8 µM) | relative viability ([4]; first compound 2.53 µM) | relative viability ([4]; first compound 8 µM) |
| --- | --- | --- | --- | --- | --- | --- | --- | --- | --- | --- | --- | --- | --- | --- | --- | --- | --- | --- | --- | --- |
| HCC-78 | 0.31 | 0.351 | 0.323 | 0.291 | 0.531 | 0.501 | 0.455 | 0.482 | 0.419 | 0.368 | 0.425 | 0.475 | 1.11 | 0.996 | 1.1 | 0.949 | – | – | – | – |
| HCC-366 | 0.58 | 0.518 | 0.605 | 0.536 | 0.691 | 0.526 | 0.68 | 0.33 | 0.407 | 0.434 | 0.374 | 0.307 | 0.989 | 0.95 | 1.02 | 1.05 | – | – | – | – |
| HCC-827 | 0.977 | 0.907 | 1.01 | 0.96 | 0.933 | 0.962 | 0.951 | 1 | 0.824 | 0.828 | 0.839 | 0.837 | 1.05 | 1.03 | 1.09 | 1.09 | 0.748 | 0.708 | 0.627 | 0.612 |
| HOP-62 | 0.882 | 1.05 | 0.741 | 1.05 | 0.972 | 0.963 | 0.869 | 1 | 0.669 | 0.648 | 0.686 | 0.679 | 1.05 | 1.02 | 1.11 | 1.16 | 0.964 | 0.892 | 0.989 | 1.01 |
| IA-LM | 1.01 | – | 0.967 | 0.938 | 0.734 | 0.277 | 0.6 | 0.685 | 1.13 | 0.937 | 0.656 | 0.939 | 0.959 | 0.79 | 0.981 | 1 | – | – | – | – |
| LC-2-ad | 0.458 | 0.406 | 0.476 | 0.638 | 0.931 | 0.862 | 0.912 | 0.742 | 0.747 | 0.668 | 0.694 | 0.694 | 1.06 | 0.935 | 1.04 | 1.08 | 1.22 | 0.989 | 1.01 | 1.1 |
| LCLC-97TM1 | 0.358 | – | 0.474 | 0.404 | 0.169 | – | 0.166 | 0.151 | 0.683 | 0.691 | 0.74 | 0.613 | 0.905 | 0.948 | 1.08 | 0.906 | 0.769 | 0.815 | 0.741 | 0.675 |
| LCLC-103H | 1.21 | 0.929 | 0.905 | 1.01 | 1.13 | 0.834 | 0.883 | 1.15 | 0.823 | 0.743 | 0.807 | 0.75 | 0.998 | 0.887 | 0.894 | 0.841 | 1.02 | 0.791 | 0.934 | 0.808 |
| LK-2 | 0.249 | 0.242 | 0.278 | 0.257 | 0.493 | 0.589 | 0.717 | 0.261 | 0.362 | 0.323 | 0.33 | 0.222 | 0.952 | 1 | 1.12 | 0.833 | 0.22 | 0.182 | 0.154 | 0.172 |
| NCI-H522 | – | – | – | – | – | – | – | – | 1.01 | 0.9 | 1.05 | 0.931 | 0.949 | 1.05 | 0.869 | 0.892 | 1.23 | 1.1 | 0.974 | 1.04 |
| NCI-H1395 | – | – | – | – | 1.22 | 1.02 | 1.26 | 1.08 | 0.813 | 0.739 | 0.707 | 0.688 | 1.05 | 0.844 | 1.01 | 0.882 | 0.918 | 0.66 | 0.769 | 0.488 |
| NCI-H1563 | 0.947 | 0.873 | 0.938 | 0.741 | 1.34 | 1.14 | 1.37 | 1.16 | – | – | – | – | 1 | 0.947 | 1.07 | 0.886 | 0.507 | 0.544 | 0.483 | 0.52 |
| NCI-H1650 | 0.991 | 0.837 | 1.19 | 1.04 | – | – | – | – | 0.676 | 0.554 | 0.685 | 0.569 | 1.24 | 0.742 | 1.08 | 0.886 | 0.185 | 0.207 | 0.189 | 0.183 |
| NCI-H1703 | 0.662 | 0.574 | 0.582 | 0.322 | 0.756 | 0.464 | 0.957 | 0.82 | – | – | – | – | 1.19 | 0.697 | 0.876 | 0.724 | – | – | – | – |
| NCI-H1792 | 1.05 | 0.956 | 0.966 | 1.01 | 0.536 | 0.449 | 0.506 | 0.487 | – | – | – | – | 1.09 | 0.78 | 0.938 | 0.796 | 0.431 | 0.317 | 0.375 | 0.32 |
| NCI-H1793 | – | – | – | – | 1.07 | 0.818 | 0.985 | 1.14 | 0.87 | – | 1.08 | 0.821 | 1.05 | 0.749 | 1.27 | 1.08 | 0.148 | 0.152 | 0.172 | 0.188 |
| NCI-H2170 | 1.15 | 1.13 | 1.2 | 1.21 | – | – | – | – | 0.856 | 0.775 | 0.854 | 0.855 | 0.994 | 0.875 | 1.06 | 0.953 | 0.779 | 0.649 | 0.758 | 0.522 |
| SW 900 | – | – | – | – | – | – | – | – | 0.738 | 0.47 | 0.603 | 0.496 | 0.897 | 0.897 | 1.14 | 0.958 | 0.216 | 0.194 | 0.177 | 0.177 |
